Data taken from PubChem BioAssay (NCI).
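48-hour exposure; five concentrations; linearly interpolated endpoints. TGI marks complete inhibition of growth.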

Columns and labels:
Test in all cases: DTP human tumour cell line panel, 48 h
COLO 205 colon = test system: COLO 205 colon
A498 renal = test system: A498 renal
LXFL 529 NSCLC = test system: LXFL 529 NSCLC
CCRF-CEM leukemia = test system: CCRF-CEM leukemia
OVCAR-4 ovarian = test system: OVCAR-4 ovarian
SNB-19 CNS = test system: SNB-19 CNS
KM20L2 colon = test system: KM20L2 colon
OVCAR-8 ovarian = test system: OVCAR-8 ovarian
SF-268 CNS = test system: SF-268 CNS
NCI-H226 lung = test system: NCI-H226 lung
DMS 114 small cell lung = test system: DMS 114 small cell lung
HOP-62 NSCLC = test system: HOP-62 NSCLC
SK-OV-3 ovarian = test system: SK-OV-3 ovarian
SNB-75 CNS = test system: SNB-75 CNS
CAKI-1 renal = test system: CAKI-1 renal
KM12 colon = test system: KM12 colon
MCF7 breast = test system: MCF7 breast
HS 578T breast = test system: HS 578T breast
MDA-MB-435 = test system: MDA-MB-435
BT-549 breast = test system: BT-549 breast

Row | SMILES | TGI (COLO 205 colon) [µM] | TGI (A498 renal) [µM] | TGI (LXFL 529 NSCLC) [µM] | TGI (CCRF-CEM leukemia) [µM] | TGI (OVCAR-4 ovarian) [µM] | TGI (SNB-19 CNS) [µM] | TGI (KM20L2 colon) [µM] | TGI (OVCAR-8 ovarian) [µM] | TGI (SF-268 CNS) [µM] | TGI (NCI-H226 lung) [µM] | TGI (DMS 114 small cell lung) [µM] | TGI (HOP-62 NSCLC) [µM] | TGI (SK-OV-3 ovarian) [µM] | TGI (SNB-75 CNS) [µM] | TGI (CAKI-1 renal) [µM] | TGI (KM12 colon) [µM] | TGI (MCF7 breast) [µM] | TGI (HS 578T breast) [µM] | TGI (MDA-MB-435) [µM] | TGI (BT-549 breast) [µM]
1 | CCCCCCCCCCCCn1[nH]c(C)c(C(=S)SCCCCCCCC)c1=O | > 100 | > 100 | > 100 | > 78.3 | > 100 | > 100 | > 100 | > 88.1 | > 100 | > 94.8 | > 79.4 | > 100 | > 100 | > 100 | > 100 | > 100 | – | – | – | –
2 | CC(=O)NC(CCCNC(=O)NCCCl)C(=O)NCc1ccccc1 (stereo not given) | > 100 | – | > 100 | > 100 | > 100 | > 100 | > 100 | > 100 | > 100 | > 100 | > 100 | > 100 | – | > 100 | > 100 | > 100 | – | – | – | –
3 | CSc1nc2c(c(O)c(C)c(=O)n2C2OCC(OC(C)=O)C(OC(C)=O)C2OC(C)=O)c(=O)n1C (stereo not given) | > 100 | > 100 | > 100 | > 100 | > 100 | > 100 | > 100 | > 100 | > 100 | > 100 | > 100 | > 100 | > 100 | > 100 | > 100 | > 100 | – | – | – | –
4 | COC(=O)NC(=O)c1cn(CCCOC(=O)CCCCCCCCC(=O)OCCCn2cc(C(=O)NC(=O)OC)c(=O)[nH]c2=O)c(=O)[nH]c1=O | – | > 100 | > 100 | > 100 | > 100 | 76.5 | > 100 | > 100 | > 100 | > 100 | > 100 | 78.5 | – | 50.1 | > 100 | > 100 | – | – | – | –
5 | Brc1ccc2c(c1)C1C(CO2)C(c2ccccc2)=NN1c1ccccc1 (stereo not given) | > 100 | > 100 | > 100 | > 100 | – | > 100 | > 100 | > 100 | > 100 | – | > 100 | > 100 | > 100 | > 100 | – | > 100 | – | – | – | –
6 | O=C(O)Cn1c(=O)[nH]c(=O)c2[nH]cnc21 | > 100 | > 100 | > 100 | > 100 | > 100 | > 100 | > 100 | > 100 | > 100 | – | > 100 | > 100 | > 100 | > 100 | – | > 100 | – | – | – | –
7 | CCC1(N=[N+]=[N-])C(=O)c2ccccc2N(c2ccccc2)C1=O (stereo not given) | > 100 | > 100 | > 100 | > 100 | > 100 | > 100 | > 100 | > 100 | > 100 | – | > 100 | > 100 | > 100 | > 100 | > 100 | > 100 | – | – | – | –
8 | CCc1cccc(C(C)CC)c1NC(=O)C(=O)C(CC(=O)Nc1ccc(Cl)c(Cl)c1)C(=O)OC (stereo not given) | > 100 | > 100 | > 100 | > 100 | > 100 | > 100 | > 100 | > 100 | > 100 | > 100 | > 100 | > 100 | > 100 | > 100 | > 100 | > 100 | – | – | – | –
9 | N#CC(C(=N/NC(N)=S)/C(=N/NC(N)=S)C(C#N)c1ccc(Cl)cc1)c1ccc(Cl)cc1 (stereo not given) | > 100 | > 100 | > 100 | 97.9 | > 100 | > 100 | > 100 | > 100 | > 100 | > 100 | > 100 | > 100 | > 100 | 92.1 | – | > 100 | – | – | – | –
10 | CCN(CC)Cc1cc(Nc2c3ccccc3nc3c4ccccc4n(C)c23)ccc1O | 17.1 | 27.8 | 14.7 | 6.44 | 27.4 | 33.4 | 17.3 | 15.6 | 52.4 | 57.4 | 19.5 | 24.3 | 31.6 | 27.3 | 26 | 23.9 | – | – | – | –
11 | CC1C=C[C@H](Sc2ccccc2)CC[C@@]1(C)O (stereo not given in full) | > 100 | > 100 | > 100 | > 100 | – | > 100 | > 100 | > 100 | – | > 100 | > 100 | > 100 | > 100 | > 100 | > 100 | – | – | – | – | –
12 | CCOC(=O)c1[nH]c(CN(C)Cc2[nH]c(C(=O)OCC)c(C)c2C(=O)OCc2ccccc2)c(C(=O)OCc2ccccc2)c1C | > 100 | 34.9 | > 100 | > 100 | 32.1 | 42.2 | 14.1 | > 100 | > 100 | 32.7 | > 100 | 89.7 | – | 19.3 | 23.8 | 54.9 | – | – | – | –
13 | COc1cc(C)c(C)c(OC(=O)c2c(C)c(C)c(OC)c(C)c2OC)c1C | 15.7 | 45.9 | > 100 | 62 | > 100 | > 100 | 19.6 | > 100 | 56.2 | 72.1 | 15.5 | > 100 | 57.2 | 36 | 79.6 | 50.9 | – | – | – | –
14 | COc1ccc(NC(=O)CC(=O)N/N=C/c2ccc(N(CCC#N)S(=O)(=O)c3ccccc3)cc2)cc1 | > 100 | – | > 100 | > 100 | > 100 | > 100 | > 100 | > 100 | > 100 | > 100 | > 100 | > 100 | > 100 | – | > 100 | > 100 | – | – | – | –
15 | COC(=O)CCc1cccnc1/C=N/O | > 100 | > 100 | > 100 | > 100 | > 100 | > 100 | > 100 | > 100 | > 100 | > 100 | > 100 | > 100 | > 100 | > 100 | > 100 | > 100 | – | – | – | –
16 | CC(C)(Oc1ccc2c(=O)cc(-c3ccccc3)oc2c1)C(=O)Nc1c(Cl)cccc1Cl | – | > 100 | > 100 | > 100 | – | > 100 | > 100 | > 100 | > 100 | – | > 100 | > 100 | > 100 | – | > 100 | > 100 | – | – | – | –
17 | COC(=O)C1N=CSCC1(C)O (stereo not given) | > 100 | > 100 | – | > 100 | > 100 | > 100 | > 100 | > 100 | > 100 | > 100 | > 100 | > 100 | > 100 | > 100 | > 100 | > 100 | – | – | – | –
18 | CCCCCCCCCCCC(=O)c1c(O)cccc1O | 29 | – | 32.6 | 62.8 | 37.6 | 30.4 | 48.5 | 33.5 | 30.4 | 34.7 | 34 | 31.5 | 85.8 | 31.9 | 56.7 | 30 | – | – | – | –
19 | Cc1nc(Nc2ccccc2)sc1C(=O)NNc1ccc([N+](=O)[O-])cc1[N+](=O)[O-] | > 100 | – | > 100 | 58.2 | > 100 | > 100 | > 100 | > 100 | > 100 | > 100 | 65.8 | > 100 | > 100 | 95.3 | > 100 | > 100 | – | – | – | –
20 | CC(C(=O)c1ccc(Cl)cc1)C1OC(=O)C(Cl)=C1Cl (stereo not given) | 51 | > 100 | 40.6 | 41.4 | 64.6 | > 100 | > 100 | > 100 | > 100 | > 100 | 76.7 | > 100 | > 100 | > 100 | – | > 100 | – | – | – | –
21 | CCCCCCCCCCCC(O)=C1C(=O)CC(O)CC1=O (stereo not given) | > 100 | – | > 100 | > 100 | > 100 | > 100 | > 100 | > 100 | > 100 | > 100 | > 100 | > 100 | > 100 | > 100 | > 100 | > 100 | – | – | – | –
22 | O=S(=O)(O)c1cc(N=Nc2cc(S(=O)(=O)O)c3cccnc3c2O)ccc1/C=C/c1ccc(N=Nc2cc(S(=O)(=O)O)c3cccnc3c2O)cc1S(=O)(=O)O | > 100 | > 100 | > 100 | 52.5 | > 100 | > 100 | > 100 | > 100 | > 100 | > 100 | > 100 | > 100 | > 100 | > 100 | > 100 | > 100 | > 100 | > 100 | > 100 | > 100
